US9163020B2, “Azaindole compounds, synthesis thereof, and methods of using the same” (Global Alliance for TB Drug Development, priority 2013, dated 2015)
In brackets after ≈: the same amount, converted by molar mass.

How the values were obtained:
[1] = tested on: CYP1A2, CYP2C9, CYP2C19, CYP2D6, CYP3A4; details: human
[2] = infected BALB/c mice, chronic efficacy, multiple oral doses 30 mg/kg, +ABT
[3] = tested on: A549 human lung carcinoma cells; format: cell-based; details: human, 72 h
Description: The in vitro cytotoxicity of compounds were measured against A549 human lung carcinoma cells as describedin Eakin et. al (2012). Briefly, A549 cells (ATCC) were grown in RPMI medium (GIBCO-BRL) containing 10% heat-inactivated fetal bovine serum (GIBCO-BRL) and 1 mM L-glutamine (GIBCO-BRL) at a density of 1,000 cells/well. After incubation of the cells with compound in a CO2 atmosphere at 37° C. for 72 hours, cell viability was determined following addition of […] of resazurin solution (Sigma), by measuring fluorescence (excitation at 535 nm, emission at 590 nm) using a fluorimeter.

[4] = tested on: hypoxia induced non-replicating persistent (NRP) Mtb cells; assay: Activity against hypoxia induced non-replicating persistent (NRP) Mtb (HBC, Wayne model); format: cell-based, Mycobacterium tuberculosis
[5] = pH 7.4
Description: Octanol-water partition coefficient (Log D) based on the shake-flask principle has been measured as follows. The aqueous solution used was 10 mM sodium phosphate buffer pH 7.4. 20 μL of 10 mM compound dissolved in DMSO was taken in glass vial plate. DMSO was removed using GeneVac. 435 μL of octanol was added using Tomtec, stirred for 5 min to dissolve. Further mixing was done by inversion for 5 h at 25° C., subsequently centrifuged for 30 min at 3000 RPM. LC/UV/APPI/MS quantitation of both aqueous and octanol layers was carried out. Log D value was determined according to the following equation.

in vivo [6] = details: BALB/c, mouse, 100 mg/kg; for AUC(0-inf) / Cmax: po; for AUC(0-inf): AUC0-∞
Description: ELF PK was performed in healthy mice (three mice/group) as described previously (Solapure et. al, 2013) after administration of a single oral dose of 100 mg/kg compound formulated in 0.5% HPMC, and 0.1% Tween 80 suspensions. […] Broncho-Alveolar Lavage (BAL) was performed after tracheotomy using 0.7 mL of ice-cold PBS. Urea estimation kit, DIUR-500 (Bio-assay Systems, U.S.A) was used for urea estimation in plasma and BAL samples. Volume of ELF was calculated after normalizing the urea concentration in BAL with that of plasma as described in Marry et. al, 2011. Plasma and BAL samples were stored at −20° C. until analysis using LC-MS/MS.
One mg/mL stock solution of each compound was prepared in Dimethylsulfoxide (DMSO) and diluted two-fold with acetonitrile. A sixteen point calibration curve was utilized for each analyte, and the standard curves ranged from 0.001 to 40 μg/mL. Plasma/BAL samples were precipitated by adding chilled acetonitrile (1:10 v/v) containing carbamazepine as internal standard (250 ng/mL). Samples were vortexed, and centrifuged at 4000 rpm for 30 min at 10° C. The resulting supernatant was mixed with mobile phase (50% acetonitrile in water with 0.1% formic acid). […] of sample was injected on to a liquid chromatographic system (Waters-ACQUTY UPLC) coupled to triple quadrupole mass spectrometer (Waters-ACQUTY-TQD; MS/MS). Samples were acquired in positive ion mode and detected by multiple reaction monitoring (MRM). Concentrations of the analyte were determined from a standard curve obtained by plotting known concentrations of the analyte against peak area ratios (analyte/internal standard peak response).
Volume of ELF in the BAL samples was calculated as volume of BAL multiplied by the ratio of urea concentrations in BAL and plasma as described (Solapure et. al, 2013; Marry et. al, 2011) The compound concentration in ELF was calculated by multiplying concentration in BAL samples by the ratio of BAL volume to the ELF volume. AUC0-∞ in plasma and ELF were calculated by Non-compartmental analysis WinNonlin Phoenix Software (version 6.2; Pharsight, USA). Free plasma AUC was calculated after multiplying concentrations at each time point by the free fraction in plasma. Lung ELF penetration ratio was calculated as a ratio of AUC0-∞ in ELF to free AUC0-∞ in free plasma/total plasma during the same time interval. This ratio, measured in healthy mice after single dose administration, was assumed to remain constant during multiple dose efficacy study in the infected mice. Sparse sample analysis in WinNonlin was used for estimating standard error (SE) associated with AUC estimate.

[7] = 1 μM
Description: Viability of cryopreserved hepatocytes was determined using trypan blue and the cell conc. was adjusted to 10^6 cells per mL with buffer (KHB buffer). 1 μM compound (in Acetonitrile; 0.01% DMSO) was incubated with 500 μL of hepatocyte cells (1 million cells per mL) in a NUNC plate. […] Supernatants were analyzed using LC-MS/MS for substrate depletion.

in vivo [8] = details: BALB/c, mouse, po
hERG = hERG (Homo sapiens, UniProt Q12809)
Description: Compounds were tested on voltage-gated ion channels using the medium-throughput electrophysiology IonWorks™ device. […] For carrying out the experiment, a boat in the “Cells” position of the IonWorks™ instrument was loaded with the cell suspension, and a 96-well PBS destination plate was placed in the “Plate 1” position. A 384-well PatchPlate™ was placed in the IonWorks™ plenum and held in position using the plenum clamp. From this point the experiment progress is automated and ultimately reports a non-cumulative concentration-effect curve for test compound.

physchem = format: physicochemical; details: 25 °C, pH 7.4, aqueous buffer, thermodynamic from solid
Description: Solubility of the compounds in 0.1M phosphate buffer, pH 7.4 was determined as described, Glyburide was used as QC standard in the assay. Briefly, compounds were diluted in ACN/water (40:60) to desired concentration, samples were dried using Genevac for 4 hrs and subsequently 800 μl of buffer was added. Compound containing plates were stirred for 24 hrs at 25° C. on Eppendorf Thermomix R at 750 rpm. Finally, compound concentration was estimated using UV and MS analysis.

[9] = tested on: panel of human targets and cardiac channels
in vivo [10] = details: BALB/c, mouse, po, 50 mg/kg
in vitro = in vitro ADME; details: plasma
Description: Protein binding is measured using the equilibrium dialysis technique. Compound is added to 10% plasma giving a concentration of 20 μM and dialysed with isotonic buffer for 18 hours at 37° C. The plasma and buffer solutions are analysed using generic LCUVMS and the first apparent binding constant for the compound derived. The binding constant is then used to determine the % free in 100% plasma.

Chain of hERG (Q12809 whole entry): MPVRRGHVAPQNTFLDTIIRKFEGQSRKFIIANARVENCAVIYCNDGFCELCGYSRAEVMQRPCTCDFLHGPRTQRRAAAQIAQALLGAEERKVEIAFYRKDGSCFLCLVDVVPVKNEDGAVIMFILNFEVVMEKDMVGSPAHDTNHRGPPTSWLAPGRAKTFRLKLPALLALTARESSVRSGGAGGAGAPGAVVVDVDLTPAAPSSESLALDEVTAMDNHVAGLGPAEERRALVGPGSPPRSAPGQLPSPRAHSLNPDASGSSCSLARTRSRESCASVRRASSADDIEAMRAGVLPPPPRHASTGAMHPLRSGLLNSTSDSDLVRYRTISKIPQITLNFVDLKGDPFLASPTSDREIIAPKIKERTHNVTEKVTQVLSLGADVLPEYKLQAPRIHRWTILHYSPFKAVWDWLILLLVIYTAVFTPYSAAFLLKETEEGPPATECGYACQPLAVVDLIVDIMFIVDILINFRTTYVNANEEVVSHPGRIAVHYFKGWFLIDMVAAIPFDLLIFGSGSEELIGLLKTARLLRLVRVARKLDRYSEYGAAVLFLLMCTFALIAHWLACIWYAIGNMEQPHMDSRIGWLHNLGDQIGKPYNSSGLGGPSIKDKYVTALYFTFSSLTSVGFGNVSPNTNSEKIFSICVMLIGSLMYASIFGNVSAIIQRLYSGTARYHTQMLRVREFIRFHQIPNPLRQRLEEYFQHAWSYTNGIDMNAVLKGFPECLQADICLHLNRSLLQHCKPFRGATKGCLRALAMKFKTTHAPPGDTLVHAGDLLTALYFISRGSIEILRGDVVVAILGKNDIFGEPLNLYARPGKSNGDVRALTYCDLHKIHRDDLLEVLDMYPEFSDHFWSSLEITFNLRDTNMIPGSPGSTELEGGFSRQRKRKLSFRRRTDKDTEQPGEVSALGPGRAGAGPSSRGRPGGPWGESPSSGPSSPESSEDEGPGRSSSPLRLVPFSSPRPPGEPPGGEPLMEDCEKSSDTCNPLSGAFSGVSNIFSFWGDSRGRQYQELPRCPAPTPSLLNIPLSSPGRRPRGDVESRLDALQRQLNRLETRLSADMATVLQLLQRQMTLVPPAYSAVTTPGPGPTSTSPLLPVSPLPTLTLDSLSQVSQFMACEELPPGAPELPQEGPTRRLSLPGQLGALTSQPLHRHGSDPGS

COc1ncnc(Cn2cc(C(=O)NCCF)c3ncccc32)c1C [Compound 3, N-(2-fluoroethyl)-1-((6-methoxy-5-methylpyrimidin-4-yl)methyl)-1H-pyrrolo[3,2-b]pyridine-3-carboxamide]
CYP inhibition [1]: >50 µM
% T > MIC [2]: 92%
% fT > MIC [2]: 29%
MMIC (A549) [3]: >100 µM
activity against non-replicating Mtb under hypoxic conditions ([4]; cidality measured as HBC in Wayne model): moderate activity
Mtb HBC ([4]; hypoxic conditions, Wayne model, Table 4): 50 µM
logD [5]: 2.1
Kp (in vivo [6]; ELF penetration ratio (based on free plasma AUC)): 7.29 to 26.1
Kp (in vivo [6]; ELF penetration ratio (based on total plasma AUC)): 0.6 to 1.97
AUC(0-inf) (in vivo [6]; ELF): 713 ± 176 µM·h
AUC(0-inf) (in vivo [6]; Plasma): 573 ± 78.8 µM·h
AUC(0-inf) (in vivo [6]; fPlasma): 43.5 ± 5.96 µM·h
Cmax (in vivo [6]; ELF): 74 ± 3.77 µM
Cmax (in vivo [6]; Plasma): 63.8 ± 7.37 µM
Cmax (in vivo [6]; fPlasma): 4.85 ± 0.56 µM
Human CLpred hepatocytes (% LBF) [7]: 6.0 % LBF
Rat CLpred hepatocytes (% LBF) [7]: 13 % LBF
AUC (in vivo [8]): 200 to 700 µM·h
AUC(0-inf) (in vivo [8]; 30 mg/kg): 252 ± 64 µM·h
Cmax (in vivo [8]; 30 mg/kg): 32.8 ± 14.4 µM
half-life (in vivo [8]; 30 mg/kg): 4.46 ± 0.16 h
hERG (hERG): >33 µM
solubility at 24 h (physchem): 8 µM (≈ 2.75 µg/mL)
Secondary pharmacology hits IC50 [9]: No significant hits
in vitro safety profiling [9]: no major safety liabilities
AUC(0-inf) (in vivo [10]): 106 ± 3.04 µM·h
Cmax (in vivo [10]): 17.8 ± 5.61 µM
Tmax (in vivo [10]): 4.33 ± 1.15 h
half-life (in vivo [10]): 2.38 ± 0.19 h
fraction unbound at 18 h, 20 μM (in vitro; human): 0.05 to 0.22
Human PPB (% free) (in vitro): 9.8 % free
